In patent US20230227506A1, “Fatty Acid Complexes Of Coronavirus Spike Protein And Their Use” (priority 2020, published 2023):
“Also recorded” adds a separate entry of the source. Where two headings read alike, the source gives them in different places.

Assays:
coronaviruses = conditions: reference (4); cited from earlier work
[1] = molecular target: T1, SARS-CoV-2 Spike Protein receptor binding domain (RBD) (Severe acute respiratory syndrome coronavirus 2, UniProt P0DTC2)
T1 construct: SARS-CoV-2 RBD (amino acids R319 to F541); made in house; host or cells: Hi5 insect cells, MultiBac baculovirus

[2] = test system: SARS-CoV-2 reporter virus (rSARS-CoV-2/Wuhan/ORF7-tGFP); assay type: cell-based
[3] = cited from earlier work
[4] = test system: SARS-CoV-2 S glycoprotein; assay type: binding
SARS-CoV-2 Spike protein [5] = assay type: binding
Caco-2-ACE2 cells = conditions: 50 uM linoleic acid
SARS-CoV-2 Spike protein [6] = assay type: cell-based

| SMILES | Virus replication on exogenous supplement (coronaviruses) | Binding to immobilized RBD quantified by SPR [1] | Effect on SARS-CoV-2 replication factories [2] | Effect on viral particles [2] | Water solubility [3] | Water solubility (in words) [3] | Water solubility (in words) ([3]; listed as Linoleic Acid) | Binding to S in the trimer seen by cryo-EM [4] | Binding of FFA in Spike protein verified by LC-MS/MS (SARS-CoV-2 Spike protein [5]) | Cell death of treated infected cells (Caco-2-ACE2 cells) | Minivirus-ACE2 cell binding compared to ApoS Miniviruses (SARS-CoV-2 Spike protein [6]) |
| --- | --- | --- | --- | --- | --- | --- | --- | --- | --- | --- | --- |
| CCCCC/C=C\C/C=C\CCCCCCCC(=O)O [LA, linoleic acid] | suppressed virus replication | high affinity binding | disrupted; also recorded: wrecked | visible deformation and destruction | about 100 mg/l | extremely low water solubility | virtually insoluble in water | tightly binds | successfully verified | significant cell death was not observed | able to reduce |
| CCCCCCCCCCCCCCCC(=O)O [PA, palmitic acid] |  |  |  |  |  |  |  |  | not |  | did not significantly reduce |
| CCCCC/C=C\C/C=C\C/C=C\C/C=C\CCCC(=O)O [AA, arachidonic acid] | suppressed virus replication |  |  |  |  |  |  |  |  |  | able to reduce |
| CCCCCCCC/C=C\CCCCCCCC(=O)O [OA, oleic acid] |  | High affinity binding |  |  |  |  |  |  | successfully verified |  | able to reduce |
